Reference: patent publication US20260183283A1 (priority 2022, published 2026)

What was measured:
[1] = tested on: Pcca^−/−PCCA(A138T)^tg/0 mice; assay: Plasma and urine acyl carnitines in Pcca−/−PCCA(A138T)tg/0 mice; type: in vivo
Experimental: The mice were maintained at 72′±2° F., humidity 50%±10% and a 14-hour light/10-hour dark cycle with the dark cycle starting at 20:00 hrs. Water was supplied ad libitum. The mice were randomized into the treatment arms to achieve a normal weight distribution. […] Blood was collected in ethylenediaminetetraacetic acid (EDTA) at P50 by cardiac puncture from isoflurane-anesthetized animals, plasma was prepared and stored frozen at −80° C. until analysis. Liver, brain, and heart were quickly excised, immediately flash frozen in liquid nitrogen and stored frozen at −80° C. until analysis.
Metabolites from Urine and Plasma: Water was added to thawed 24-hr urine samples to a final volume of 1 mL for each mouse. To 100 μL of urine or 20 μL of plasma, warfarin standard was added at a final concentration of 0.2 μM and the sample was incubated at −80° C. for 1 hour. The sample was centrifuged at 6000×g for 10 minutes to remove precipitants and the supernatant was analyzed by LC/MS/MS. Analysis was performed using a Shimadzu Prominence UFLC attached to a QTrap 4500 equipped with a Turbo V ion source (Sciex). […] The system was controlled by the Analyst® software (Sciex) and analyzed with MultiQuant™ 3.0.2 software (Sciex). The relative amount of metabolite was normalized to the amount of warfarin then the ratio to creatinine was calculated.

[2] = tested on: Pcca^−/−PCCA(A138T)^tg/0 mice; assay: Total CoA in liver and brain of Pcca−/−PCCA(A138T)tg/0 mice; type: in vivo; conditions: 22.5 ppm (3 mg/kg) in chow for 30 days after weaning
From the text: Water was supplied ad libitum.

O=C(Cc1ccc(C2CC2)c(F)c1)N1CCN(c2ccc(Cl)nn2)CC1 [Compound (I), 1-(4-(6-chloropyridazin-3-yl)piperazin-1-yl)-2-(4-cyclopropyl-3-fluorophenyl)ethan-1-one]
Decreased free carnitine and C2-carnitine levels in plasma and urine ([1]; 22.5 ppm (3 mg/kg) in chow for 30 days after weaning): rescued
C3-carnitine in plasma ([1]; 22.5 ppm (3 mg/kg) in chow, plasma): decreased
Increase of brain total CoA compared to untreated mice ([2]; brain): ~44%
Increase of liver total CoA compared to untreated mice ([2]; liver): ~45%
